# From ChEMBL document CHEMBL3886639, “2,5-disubstituted-pyridyl nicotinic ligands, and methods of use thereof” (2016)
# Assay: [3H]-Epibatidine Radioligand Binding Assay: Briefly, cultured cells at >80% confluence were removed from their flasks (80 cm^2) with a disposable cell scraper and placed in 10 mL of 50 mM Tris.HCl buffer (pH 7.4, 4 °C.). The cell suspension was centrifuged at 10,000×g for 5 min and the pellet was collected. The cell pellet was then homogenized in 10 mL buffer with a polytron homogenizer and centrifuged at 36,000 g for 10 min at 4 °C. The membrane pellet was resuspended in fresh buffer, and aliquots of the membrane preparation were used for binding assays. The concentration of [3H]-epibatidine used was ~500 pM for competition binding assays. […] Bound and free ligands were separated by vacuum filtration through Whatman GF/C filters treated with 0.5% polyethylenimine. The filter-retained radioactivity was measured by liquid scintillation counting. Specific binding was defined as the difference between total binding and nonspecific binding. Data from competition binding assays were analyzed using Prism 5 (GraphPad Software, San Diego, Calif.).
smiles,measurement,value
CCCCC#Cc1cnc(C(F)(F)F)c(OC[C@@H]2CCN2)c1,Ki,> 100 µM
